Where “and” joins values, the source holds several entries; their conditions need not be identical. Equal values may be shown once.
Tested on: rat uterine decidualization
Test: Rat decidualization assay
Assay type: in vivo
Settings: decrease in EC50 progesterone induced decidual response in rat, p.o.; individual studies
Method: 1. Rat Decidualization Assay
The materials and methods used in tins assay are as follows.
The animals are treated once daily for seven days.
Uteri are removed and trimmed of fat.
Decidual response: [(D-C)/C]×100%

In the case of CC#C[C@]1(O)CC[C@H]2[C@@H]3CCC4=CC(=O)CCC4=C3[C@@H](c3ccc(N(C)C)cc3)C[C@@]21C [RU486], the IC50 is reported as 0.21 mg/kg, p.o. and 0.14 mg/kg, p.o.

Same assay, conditions: rat decidual response, s.c.; average of dose-response curves

For C#C[C@]1(O)CC[C@H]2[C@@H]3CCC4=CC(=O)CC[C@@H]4[C@H]3C(=C)C[C@@]21CC [3-Ketodesogestrel], the “Estimated average EC50” value was 0.10 mg/kg, s.c.

Tested on: not given
Test: not given
Settings: not given

First: N#CCc1cccc(-c2ccc3c(c2)C2(CCCCC2)C(=O)N3)c1 [Example 81, 3-(1′,2′-Dihydro-2′-oxospiro[cyclohexane-1,3′-[3H]indol]-5′-yl)phenylacetonitrile]
Second: O=C1Nc2ccc(-c3cccc(O)c3)cc2C12CCCCC2 [Example 33, 5′-(3-Hydroxyphenyl)spiro[cyclohexane-1,3′-[3H]indol]-2′(1′H)-one]
The melting point of the first is lower: 190 to 193 °C for the first, 213 to 216 °C for the second.

First: O=C1Nc2ccc(-c3ccc(C=NO)c(F)c3)cc2C12CCCCC2 [Example 64, 2-fluoro-4-(1′,2′-Dihydro-2′-oxospiro[cyclohexane-1,3′-[3H]indol]-5′-yl) benzaldehyde oxime]
Second: O=C1Nc2ccc(-c3cccc(C=NO)c3F)cc2C12CCCCC2 [Example 68, 2-fluoro-3-(1′,2′-Dihydro-2′-oxospiro[cyclohexane-1,3′-[3H]indol]-5′-yl) benzaldehyde oxime]
The melting point of the first is higher: 240 to 242 °C for the first, 213 to 217 °C for the second.

First: CCOC(OCC)N1C(=O)C2(CCCCC2)c2cc(-c3cc(F)cc(C#N)c3)ccc21 [Example 50, 3-(1′-Diethoxymethyl-1′,2′-dihydro-2′-oxospiro[cyclohexane-1,3′-[3H]indol]-5′-yl)-5-fluorobenzonitrile]
Second: N#Cc1cncc(-c2ccc3c(c2)C2(CCCCC2)C(=O)N3)c1 [Example 17, 5-(1′,2′-Dihydro-2′-oxospiro[cyclohexane-1,3′-[3H]indol]-5′-yl)-3-pyridine carbonitrile]
The melting point of the first is lower: 146 °C for the first, 232 to 234 °C for the second.

First: CC1(C)C(=O)Nc2ccc(-c3cc(F)cc(C#N)c3)cc21 [Example 82, 3-(3,3-Dimethyl-2-oxo-2,3-dihydro-1H-indol-5-yl)-5-fluoro-benzonitrile]
Second: COc1cccc(-c2ccc3c(c2)C(C)(C)C(=O)N3)c1 [Example 3, 5-(3-Methoxy-phenyl)-3,3-dimethyl-1,3-dihydro-indol-2-one]
The melting point of the first is higher: 231.2 to 232.3 °C for the first, 157 to 158 °C for the second.

In the case of O=C1Nc2ccccc2C12CCCC(c1cccc(F)c1)C2 (centres unmarked) [Example 21, 5-(3-Fluorophenyl)spiro[cyclohexane-1,3′-[3H]indol]-2′(1′H)-one], the melting point is reported as 171 to 172 °C.
